Values of other authors in patent US20190038640A1, “COMPOSITION, FORMULATIONS AND METHODS OF MAKING AND USING BOTANICALS AND NATURAL COMPOUNDS FOR THE PROMOTION OF HEALTHY BRAIN AGING” (THE BRAIN HEALTH PROJECT, LLC, priority 2013, published 2019).

Key:
[1] = system: endometrium; conditions: genistein aglycone 54 mg
[2] = 0.1-0.2 mg HupA twice daily, active group
[3] = in vivo
[4] = system: beta amyloid; conditions: AD transgenic mice
[5] = system: alkaline phosphatase activity in the endometrium

For `O=c1c(-c2ccc(O)cc2)coc2cc(O)cc(O)c12` [Genistein, genistein], the “reduction of endometrial hyperplasia without atypia compared with norethisterone acetate” value [1] is given as “as successful as”.

In the case of `C/C=C1\[C@H]2C=C(C)C[C@]1(N)c1ccc(=O)[nH]c1C2` [Huperzine A], the “proportion of patients with a four point improvement on the ADAS-Cog” value [2] is listed as 56%, the terminal half life (0.2 mg pure Huperzine A orally, healthy subjects) is listed as “approximately 6 hours” and the optimal plasma level (human, in vivo) is listed as 0.6 ng/mL.

In the case of `Cn1c(=O)c2c(ncn2C)n(C)c1=O` [caffeine], the half life [3] is given as 4 to 6 h, the “time to peak blood levels” value [3] is given as “within one hour” and the “reduction of beta amyloid deposition in the entorhinal cortex” value [4] is given as 46%. For the same molecule, the “reduction of beta amyloid deposition in the hippocampus” value [4] was 40%.

For `O=c1c(-c2ccc(O)cc2)coc2cc(O)ccc12` [daidzein], the “potency of inducing alkaline phosphatase activity relative to estradiol” value [5] is listed as “one millionth”.
